Assay [1] deals with T1, PDE7B (Homo sapiens, UniProt Q9NP56). Description: 5FOA growth assay in fission yeast strain expressing PDE7B. Details: targets used in the assays are full-length proteins (as opposed to simply the catalytic domain); expressed in transfected cells; host or cells: Schizosaccharomyces pombe. Format: cell-based. The conditions noted are these: OD600 0.6; read-out: ED50 for 5FOA growth assays, PDE7B. As to the method:
PDE inhibition allows growth in 5FOA medium as measured by optical density after 48 hours incubation at 30° C. Compound BC12 and six structural analogs were tested for growth stimulation.
Cells were pregrown in EMM medium [MP Biomedicals (Solon, Ohio), 3% glucose, filter-sterilized to avoid carmelization, which would introduce variability into the optical density of the medium] containing from 0 mM to 2.5 mM cAMP (or either 0.5 mM or 1.0 mM cGMP). This was to repress expression of the fbp1-ura4 reporter prior to exposure of cells to 5FOA medium. Cells were grown at 30° C. to exponential phase (approximately 10^7 cells/ml). Cells were collected by centrifugation and resuspended in 5FOA medium, and 25 μl were transferred to 384-well microtiter dishes (untreated, with flat clear bottoms) that had been pre-filled with 25 μl 5FOA medium and pre-pinned with 100 nl of compounds (stock solutions were generally 10 mM). Starting cell concentrations ranged from 0.5×10^5 to 4×10^5 cells/ml depending on the screening strain. […] Other positive control dishes contained 5 mM cAMP in the 5FOA medium for PDEs that lack appropriate control compounds. Cultures were grown for 48 hours at 30° C., sealed in an airtight container with moist paper towels to prevent evaporation. Optical densities (OD600) of cultures were measured using a microplate reader. Bioinformatic analysis of the results to determine composite Z scores was performed as previously described (1, 3).
Target sequence in this assay (Q9NP56 whole entry, species assumed, the tested form may be a part): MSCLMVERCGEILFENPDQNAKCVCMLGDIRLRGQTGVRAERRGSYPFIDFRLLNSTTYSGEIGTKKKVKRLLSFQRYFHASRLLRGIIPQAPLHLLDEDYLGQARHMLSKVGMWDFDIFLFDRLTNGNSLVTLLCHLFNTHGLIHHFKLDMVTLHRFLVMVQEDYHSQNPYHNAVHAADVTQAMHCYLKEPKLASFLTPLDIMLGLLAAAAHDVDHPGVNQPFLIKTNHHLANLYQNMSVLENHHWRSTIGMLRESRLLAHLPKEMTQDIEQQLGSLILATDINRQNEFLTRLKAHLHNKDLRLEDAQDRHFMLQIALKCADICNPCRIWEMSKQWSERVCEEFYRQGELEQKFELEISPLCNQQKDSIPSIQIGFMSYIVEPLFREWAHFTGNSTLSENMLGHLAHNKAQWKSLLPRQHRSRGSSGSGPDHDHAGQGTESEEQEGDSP

Assay [2] has as its target T2, PDE4D3 (Homo sapiens, UniProt Q08499).
T2 construct: targets used in the assays are full-length proteins (as opposed to simply the catalytic domain); expressed in transfected cells; host or cells: Schizosaccharomyces pombe, PDE gene integrated in place of cgs2
Description: cAMP response in yeast strain expressing PDE4D3. Format: cell-based.

Assay [3] deals with PDE4A (Homo sapiens, UniProt P27815). Description: in vitro enzyme assay PDE4A (Table 7). Format: biochemical. The conditions noted are these: 2 micromolar compound; read-out: percent of PDE activity present, PDE4A.
Assay [4] addresses PDE4B (Homo sapiens, UniProt Q07343). Description: in vitro enzyme assay PDE4B (Table 7). Format: biochemical. The conditions noted are these: 2 micromolar compound; read-out: percent of PDE activity present, PDE4B.
Assay [5] has as its target PDE4D (Homo sapiens, UniProt Q08499). Description: in vitro enzyme assay PDE4D (Table 7). Type of assay: biochemical. The conditions noted are these: 2 micromolar compound; read-out: percent of PDE activity present, PDE4D.
Assay [6] has as its target PDE7A (Homo sapiens, UniProt Q13946). Description: in vitro enzyme assay PDE7A. Details: made in house; host or cells: E. coli. Type of assay: biochemical. The settings on record: 2 micromolar compound; read-out: percent of PDE activity present, PDE7A.
For assay [7], the target named is T3, PDE4A10 (Homo sapiens, UniProt P27815).
T3 construct: made in house; host or cells: E. coli
Description: in vitro enzyme assay, E. coli expressed and purified PDE4A10. Type of assay: biochemical. The conditions noted are these: read-out: IC50 (or AC200), PDE4A10.

The target of assay [8] is T4, PDE4D2-CAT (Homo sapiens, UniProt Q08499).
T4 construct: 86-413; made in house; host or cells: E. coli
Description: in vitro enzyme assay, catalytic fragment of PDE4D2 (residues 86-413). The conditions noted are these: catalytic fragment; AC200 = [Compound] that doubles PDE activity; read-out: IC50 (or AC200), PDE4D2-CAT. Format: biochemical.

The target in assay [9] is T5, PDE4D2-FL (Homo sapiens, UniProt Q08499).
T5 construct: 1-507; made in house; host or cells: E. coli
Description: in vitro enzyme assay, full-length PDE4D2 (residues 1-507). Format: biochemical. The settings on record: read-out: IC50 (or AC200), PDE4D2-FL.

For assay [10], the target named is PDE4B2 (Homo sapiens, UniProt Q07343). The assay can be described thus: in vitro enzyme assay, E. coli expressed and purified PDE4B2. Details: targets used in the assays are full-length proteins (as opposed to simply the catalytic domain). The settings on record: read-out: IC50 (or AC200), PDE4B2. Type of assay: biochemical.
In assay [11] the target is T1, PDE7B. The assay can be described thus: in vitro enzyme assay, PDE7B catalytic domain from E. coli, hydrolysis of cAMP to AMP. Format: biochemical. Details: The PDE7B catalytic domain was expressed in and purified from E. coli; made in house; host or cells: E. coli. On the procedure:
The PDE7B catalytic domain was expressed in and purified from E. coli and tested for activity in an in vitro enzyme assay, measuring the hydrolysis of cAMP to AMP. Four dilutions of the enzyme preparation were tested at various compound concentrations (X axis). The percent of cAMP hydrolyzed is plotted on the Y axis.
Target sequence in this assay (Q9NP56 97-420 limits assumed, species assumed): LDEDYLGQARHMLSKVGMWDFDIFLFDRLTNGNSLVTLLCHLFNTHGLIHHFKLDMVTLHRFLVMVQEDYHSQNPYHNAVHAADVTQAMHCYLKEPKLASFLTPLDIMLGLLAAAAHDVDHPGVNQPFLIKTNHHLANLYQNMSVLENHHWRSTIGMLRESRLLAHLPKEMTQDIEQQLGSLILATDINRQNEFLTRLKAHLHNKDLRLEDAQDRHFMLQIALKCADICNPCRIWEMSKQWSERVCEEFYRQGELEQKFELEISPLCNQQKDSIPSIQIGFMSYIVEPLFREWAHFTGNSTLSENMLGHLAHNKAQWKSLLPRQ

Each structure is given as a SMILES string.

T2 sequence (Q08499 1-673 isoform Q08499-2): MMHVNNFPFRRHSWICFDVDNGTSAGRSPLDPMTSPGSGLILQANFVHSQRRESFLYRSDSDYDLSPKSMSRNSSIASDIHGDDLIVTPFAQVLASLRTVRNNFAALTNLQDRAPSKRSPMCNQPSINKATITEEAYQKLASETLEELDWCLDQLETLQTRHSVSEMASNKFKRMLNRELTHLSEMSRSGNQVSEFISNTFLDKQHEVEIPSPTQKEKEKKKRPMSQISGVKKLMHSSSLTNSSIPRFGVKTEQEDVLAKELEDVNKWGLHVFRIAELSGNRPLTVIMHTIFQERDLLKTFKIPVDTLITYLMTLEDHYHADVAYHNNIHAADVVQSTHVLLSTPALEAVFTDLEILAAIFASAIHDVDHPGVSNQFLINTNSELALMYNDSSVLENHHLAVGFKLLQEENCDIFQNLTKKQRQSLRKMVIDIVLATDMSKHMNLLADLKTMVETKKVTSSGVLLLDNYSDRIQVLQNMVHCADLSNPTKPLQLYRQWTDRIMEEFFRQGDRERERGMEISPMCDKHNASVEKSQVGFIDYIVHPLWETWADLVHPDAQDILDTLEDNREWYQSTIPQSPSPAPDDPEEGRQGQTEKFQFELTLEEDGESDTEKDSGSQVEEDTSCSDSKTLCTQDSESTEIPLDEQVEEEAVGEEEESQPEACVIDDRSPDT
Chain of PDE4B2 (Q07343 1-564 isoform Q07343-2, species assumed): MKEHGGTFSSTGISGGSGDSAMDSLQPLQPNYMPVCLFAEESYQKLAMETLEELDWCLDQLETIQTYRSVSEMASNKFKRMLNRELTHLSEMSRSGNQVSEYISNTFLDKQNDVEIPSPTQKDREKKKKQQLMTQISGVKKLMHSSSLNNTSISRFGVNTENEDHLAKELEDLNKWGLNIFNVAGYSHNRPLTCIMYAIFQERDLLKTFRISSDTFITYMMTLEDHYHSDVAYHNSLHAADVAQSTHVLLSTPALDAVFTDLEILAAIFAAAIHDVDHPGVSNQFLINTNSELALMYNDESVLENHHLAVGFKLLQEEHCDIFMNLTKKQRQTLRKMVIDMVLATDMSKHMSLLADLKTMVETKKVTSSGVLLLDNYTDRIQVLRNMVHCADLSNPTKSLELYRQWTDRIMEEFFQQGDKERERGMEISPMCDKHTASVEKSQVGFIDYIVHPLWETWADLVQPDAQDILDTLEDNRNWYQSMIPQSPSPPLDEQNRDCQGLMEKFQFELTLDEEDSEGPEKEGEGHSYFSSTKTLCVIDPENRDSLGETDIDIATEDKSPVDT
T5 sequence (Q08499 303-809): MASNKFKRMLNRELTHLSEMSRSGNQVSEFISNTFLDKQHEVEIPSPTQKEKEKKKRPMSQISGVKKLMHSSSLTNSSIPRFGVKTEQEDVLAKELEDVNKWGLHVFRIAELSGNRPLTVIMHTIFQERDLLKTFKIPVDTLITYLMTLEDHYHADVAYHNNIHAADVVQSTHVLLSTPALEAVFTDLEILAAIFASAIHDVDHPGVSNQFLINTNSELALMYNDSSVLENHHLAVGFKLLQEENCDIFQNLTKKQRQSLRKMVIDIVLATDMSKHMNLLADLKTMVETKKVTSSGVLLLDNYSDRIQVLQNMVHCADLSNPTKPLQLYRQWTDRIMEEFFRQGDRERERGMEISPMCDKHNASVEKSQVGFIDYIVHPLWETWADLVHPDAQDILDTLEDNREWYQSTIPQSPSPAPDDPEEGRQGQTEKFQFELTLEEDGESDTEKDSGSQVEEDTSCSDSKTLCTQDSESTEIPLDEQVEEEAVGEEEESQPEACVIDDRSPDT
Chain of PDE4B (Q07343 whole entry, species assumed): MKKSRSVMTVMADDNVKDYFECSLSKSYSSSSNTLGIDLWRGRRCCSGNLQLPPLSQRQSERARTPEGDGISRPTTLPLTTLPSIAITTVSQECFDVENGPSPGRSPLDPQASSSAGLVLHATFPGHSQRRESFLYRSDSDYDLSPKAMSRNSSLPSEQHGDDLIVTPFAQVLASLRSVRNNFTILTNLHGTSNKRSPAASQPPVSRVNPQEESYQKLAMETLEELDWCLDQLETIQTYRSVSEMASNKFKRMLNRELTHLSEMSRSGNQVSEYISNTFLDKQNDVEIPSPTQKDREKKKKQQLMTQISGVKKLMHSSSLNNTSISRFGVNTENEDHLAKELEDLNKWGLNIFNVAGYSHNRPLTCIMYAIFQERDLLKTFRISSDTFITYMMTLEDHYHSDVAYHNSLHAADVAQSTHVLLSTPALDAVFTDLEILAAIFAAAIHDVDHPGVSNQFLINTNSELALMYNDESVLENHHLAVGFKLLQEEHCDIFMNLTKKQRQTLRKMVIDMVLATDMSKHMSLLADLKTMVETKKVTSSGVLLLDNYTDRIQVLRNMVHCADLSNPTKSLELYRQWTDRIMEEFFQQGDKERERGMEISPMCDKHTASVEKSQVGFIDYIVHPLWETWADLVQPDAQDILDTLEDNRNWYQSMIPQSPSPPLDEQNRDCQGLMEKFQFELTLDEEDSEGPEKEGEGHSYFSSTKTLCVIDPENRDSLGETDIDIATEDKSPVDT
T4 sequence (Q08499 388-715): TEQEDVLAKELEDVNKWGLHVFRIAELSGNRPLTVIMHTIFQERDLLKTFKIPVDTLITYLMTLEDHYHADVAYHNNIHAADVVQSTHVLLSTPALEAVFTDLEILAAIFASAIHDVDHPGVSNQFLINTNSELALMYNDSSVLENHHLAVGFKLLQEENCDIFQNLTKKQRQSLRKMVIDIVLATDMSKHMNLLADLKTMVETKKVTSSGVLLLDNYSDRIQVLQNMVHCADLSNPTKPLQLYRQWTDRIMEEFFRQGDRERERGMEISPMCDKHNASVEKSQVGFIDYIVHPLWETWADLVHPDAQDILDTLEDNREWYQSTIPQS
Chain of PDE4D (Q08499 whole entry): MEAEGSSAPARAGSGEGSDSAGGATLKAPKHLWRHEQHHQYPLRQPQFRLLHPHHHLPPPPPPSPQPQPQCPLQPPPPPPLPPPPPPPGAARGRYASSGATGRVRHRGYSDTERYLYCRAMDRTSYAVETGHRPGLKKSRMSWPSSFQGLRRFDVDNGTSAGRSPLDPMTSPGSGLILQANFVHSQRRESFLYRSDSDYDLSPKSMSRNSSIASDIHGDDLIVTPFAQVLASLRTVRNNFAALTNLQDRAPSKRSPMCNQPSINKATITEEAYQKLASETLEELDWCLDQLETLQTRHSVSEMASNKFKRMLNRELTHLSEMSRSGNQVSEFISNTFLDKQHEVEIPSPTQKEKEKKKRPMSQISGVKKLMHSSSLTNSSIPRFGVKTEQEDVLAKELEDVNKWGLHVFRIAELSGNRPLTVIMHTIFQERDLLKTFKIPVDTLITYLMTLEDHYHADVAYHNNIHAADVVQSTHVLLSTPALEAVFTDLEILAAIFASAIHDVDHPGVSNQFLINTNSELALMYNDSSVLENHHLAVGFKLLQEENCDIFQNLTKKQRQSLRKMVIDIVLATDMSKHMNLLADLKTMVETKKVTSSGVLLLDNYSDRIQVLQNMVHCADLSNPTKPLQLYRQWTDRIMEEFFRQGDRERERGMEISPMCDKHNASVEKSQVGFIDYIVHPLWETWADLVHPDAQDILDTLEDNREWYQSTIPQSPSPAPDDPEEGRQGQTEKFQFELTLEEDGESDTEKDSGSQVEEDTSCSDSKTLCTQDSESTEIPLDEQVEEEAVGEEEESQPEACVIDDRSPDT
Chain of PDE7A (Q13946 whole entry): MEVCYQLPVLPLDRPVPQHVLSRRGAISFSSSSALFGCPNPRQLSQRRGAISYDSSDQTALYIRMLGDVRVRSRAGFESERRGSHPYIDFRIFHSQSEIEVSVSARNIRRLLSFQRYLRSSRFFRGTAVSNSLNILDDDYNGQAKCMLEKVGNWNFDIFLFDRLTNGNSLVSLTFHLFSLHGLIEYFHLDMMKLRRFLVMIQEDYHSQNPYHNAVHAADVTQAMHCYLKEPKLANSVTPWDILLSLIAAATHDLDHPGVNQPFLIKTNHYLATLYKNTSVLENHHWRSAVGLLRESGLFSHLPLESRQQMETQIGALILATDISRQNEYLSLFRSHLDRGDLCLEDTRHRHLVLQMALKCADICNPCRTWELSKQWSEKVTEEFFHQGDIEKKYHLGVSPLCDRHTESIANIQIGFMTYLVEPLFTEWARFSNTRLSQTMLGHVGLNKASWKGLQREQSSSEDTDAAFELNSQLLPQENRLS

`Cc1sc2ncnc(Nc3ccccc3)c2c1C` [BC64]: in [1], the EC50 was > 200000 nM.

Turning to `CCN(CC)c1ncnc2sc3c(c12)CCCC3` [BC44], the EC50 in assay [1] was found to be 2100 nM.

`COC(=O)C1=C(C)N(c2ccccc2Cl)C(=O)/C1=C\c1cccs1` [Compound 27]: in [2], the “cAMP Response (% rolipram), 4D3” value was 8.00 % rolipram.

Consider `Cc1c(C(=O)Nc2ccc(F)cc2F)sc2ncnc(N(C)c3ccccc3)c12` [Compound 58-9], for which the remaining activity at 2 µM in assay [3] turned out to be 84%; in assay [4] it was 72%; in [5] it was 77%; in assay [6], 52%.

As to `COC(=O)C1=C(C)N(C2CCCCC2)C(=O)/C1=C\c1cccs1` [Compound 22], in assay [2], the “cAMP Response (% rolipram), 4D3” value was 12.00 % rolipram.

Turning to `N#Cc1sc2sc(C#N)c(-c3ccco3)c2c1N` [Compound 30], the IC50 is > 2000 nM in assay [7]; < 100 nM in [8]; > 2000 nM in [9]; ~2000 nM in assay [10]; 12000 nM in assay [11] (AC200 = [Compound] that doubles PDE activity, read-out: IC50 (or AC200), PDE7B).

For the compound `Cc1c(C(=O)Nc2ccc(F)cc2F)sc2ncnc(N3CCC(C)CC3)c12` [BC58], the “PDE7B, 2 uM cpm” value in [11] (2 uM compound) worked out at 15093 cpm.
